Assay results reported in patent US12617757B2, “Compounds and modules for inhibition of pre-miR-21 and their use in treatment of certain cancers” (University of Florida Research Foundation, Incorporated, priority 2019, dated 2026).
Read-outs that look alike come from different tables or passages of the source. Blank lines part the entries; values can stand above or below the compound they belong to.

Legend:
[1] = tested on: pre-miR-21; assay: Cellular Chem-CLIP / C-Chem-CLIP in MDA-MB-231 cells; assay type: cell-based, human; details: for enrichment of the pre-miR-21 transcript by Chem-CLIP: MDA-MB-231, RT-qPCR
Protocol: Cellular Chem-CLIP/C-Chem-CLIP. The MDA-MB-231 cells were grown to ˜70% confluency as monolayers in 60 mm dishes. The cells were treated with Chem-CLIP compounds (8 or 9) and/or non-cross-linking competitors (1 or 2) for 48 h. Total RNA was extracted using a Quick-RNA MiniPrep Kit (Zymo Research) per the manufacturer's protocol. Approximately 20-30 μg of total RNA was then incubated with 100 μL of streptavidin-agarose beads (Sigma-Aldrich) and shaken for 1 h at room temperature. The solution was removed beads washed six times with 1×PBS. The RNA bound to beads was released, purified, and used for RT-qPCR as previously described^23. Relative fold enrichment of the measured RNA before and after pulldown was measured using equation 3 (Eq. 3): Relative Fold Enrichment=2^−(ΔC^t^before pulldown−ΔC^t^after pulldown) (Eq. 3)
where “ΔCt before pulldown” is the difference between the Ct values for the RNA of interest and a housekeeping gene in total RNA from cells and “ΔCt after pulldown” is the difference between the Ct values for the RNA of interest and the same housekeeping gene in RNA after pulldown.

[2] = tested on: pre-miR-21 BP RNA; assay: In vitro Dicer processing of pre-miR-21 BP; assay type: biochemical
Source text: (§1) In vitro Dicer processing. […] Cleavage products were resolved on a denaturing 15% polyacrylamide gel, which was imaged using a Molecular Dynamics Typhoon phosphorimager and quantified with Bio-Rad's QuantityOne software, normalizing to full length RNA.

[3] = target: pre-miR-21 WT; assay: Microscale thermophoresis (MST) binding to pre-miR-21 WT; details: read-out: Kd, binding of the pre-miR-21 RNA Dicer site
Protocol: (§2) Microscale Thermophoresis (MST) Binding Measurements. MST fluorescent measurements were performed on a Monolith NT.115 system (NanoTemper Technologies) using the fluorescence of a miR-21 hairpin (A+U Bulge): (5′ Cy5-[…]-3′) (SEQ ID NO: 1) or a miR-21 base paired control (5′ Cy5-[…]-3′) (SEQ ID NO: 2) which were purchased from IDT with RNase-free HPLC purification and used without further purification. The RNA (5 nM) was diluted in 1×MST Buffer (8 mM Na2HPO4, 190 mM NaCl, 1 mM EDTA, and 0.05% (v/v) Tween-20) and folded by heating at 60° C. for 5 min, and slowly cooling to room temperature. Compounds 1 and 2 were diluted in 1×MST Buffer, followed by 1:3 dilutions in 1×MST Buffer containing 5 nM RNA. […] Fluorescence measurements (Ex: 605-645 nm, Em: 680-685 nm) were performed at 10% LED and 80% MST power, with a Laser-On time of 30 s and Laser-Off time of 5 s. The data were analyzed by thermophoresis analysis and fitted by the quadratic binding equation in MST analysis software (NanoTemper Technologies). Dissociation constants were then determined by curve fitting using a single-site model. Normalized MST signal was calculated by normalizing the fluorescent signals using the MST data of 1 binding to pre-miR-21 WT with the lowest signal as 0 and the highest fluorescent signal as 1.

[4] = tested on: pre-miR-21 WT RNA; assay: In vitro Dicer processing of pre-miR-21 WT; assay type: biochemical
Source text: as §1

[5] = tested on: pre-miR-21 BP; assay: MST binding to pre-miR-21 BP (base paired control); details: addition of 100 μM of compound
Protocol: as §2

[6] = tested on: pre-miR-21; assay: RT-qPCR of mature miR-21 and pre-miR-21 levels in MDA-MB-231 cells; assay type: cell-based, human; details: for effect on mature miR-21 levels / effect on pre-miR-21 levels: MDA-MB-231, RT-qPCR
Protocol: Cell culture compound treatment and transfection. For treatment with compounds, stocks in DMSO or water were diluted in growth media and added to cells for 24-72 h. For transfection of plasmid DNA to overexpress the miR-21 hairpin precursor in pcDNA3.1 (Addgene 21114) or pcDNA3-RNaseL (R. H. Silverman, Cleveland Clinic^24) in 24-well plates, Lipofectamine 2000 was used according to the manufacturer's protocol. After transfection, the medium was removed and replaced with growth medium containing compound prepared as described above. For transfection of a control (Santa Cruz Biotechnology: sc-37007) or RNase L targeting siRNA (Santa Cruz Biotechnology: sc-45965), Lipofectamine RNAiMAX Reagent was used for transfection of oligonucleotides, including 2′-5′ A4, according to the manufacturer's protocol.

[7] = tested on: pre-miR-210; assay: RT-qPCR of pre-miR-210 and miR-210 in hypoxic MDA-MB-231 cells; assay type: cell-based, human; details: hypoxic MDA-MB-231, RT-qPCR
[8] = tested on: pre-miR-21 WT RNA; assay: In vitro Chem-CLIP pulldown; assay type: binding
Protocol: In vitro Chemical Cross-linking and Isolation by Pull Down (Chem-CLIP) and Competitive Chemical Cross-linking and Isolation by Pull Down (C-Chem-CLIP). RPMI growth medium was heat inactivated at 95° C. for 15 min and then cooled to room temperature. Approximately 10,000 counts of ^32P 5′-end labeled miR-21 precursor hairpin RNA (pre-miR-21 WT) was folded in growth medium at 95° C. for 1 min. After cooling to room temperature, dilutions of Chem-CLIP probes 8 or 9^23 were added and incubated at 37° C. for 18 h. Alternatively, for C-Chem-CLIP, dilutions of competing non-cross-linking parent compounds, 1 or 2, were incubated with RNA for 1 h before addition of Chem-CLIP probe compounds. Streptavidin-agarose beads (Sigma-Aldrich) were then used to pulldown RNA. Samples were then washed with 1×PBS supplemented with 0.1% (v/v) Tween-20 and bound and unbound RNA radioactivity measured using a Beckman Coulter LS6500 Liquid Scintillation Counter as previously described^23.

[9] = tested on: pri-miR-21 RNA; assay: In vitro Ribo-SNAP; assay type: biochemical; details: dose responsive treatment
Protocol: In vitro Ribo-SNAP. The pri-miR-21 RNA (1 μM) was folded as described above. Dilutions of cleaver compounds (Bleomycin A5 or 10) were pre-activated by the addition of 1 eq Fe^2+ and added to the folded RNA in a total volume of 20 μL. After 30 min and 60 min, an additional equivalent of Fe^2+ was added and then the reaction mixtures were incubated at 37° C. overnight. After ethanol precipitation and quantification by Nanodrop, reverse transcription was performed using SuperScript™ III Reverse Transcriptase (ThermoFisher Scientific) per the manufacturer's protocol using a 5′ ^32P-labeled forward primer (˜10,000 counts). The A, T, G and C sequencing ladders were generated by using a ratio of ddNTP/dNTP of 3:1. The RNA was digested by the addition of RNase A and RNase H and incubated at 37° C. for 30 min. Then, an equal volume of Loading Buffer (95% […], 50 mM EDTA, 0.05% (w/v) bromophenol blue, 0.05% (w/v) xylene cyanol) was added to each reaction. The final mixture was resolved on a denaturing 15% polyacrylamide gel.

[10] = tested on: pri-miR-21; assay: Ribo-SNAP-Map in MDA-MB-231 cells; assay type: cell-based, human
Protocol: Ribo-SNAP-Map. The MDA-MB-231 cells were grown in 100 mm dishes to ˜70% confluency and treated with cleaving compound (10) for 6 h. Total RNA was then extracted by treatment with TRIzol (ThermoFisher Scientific) and quantified by Nanodrop. Approximately 10 μg of total RNA was used for reverse transcription with a pri-miR-21 specific primer (5′-[…]-3′; 2 pmol) (SEQ ID NO: 12) using Superscript III (SSIII; Life Technologies). Approximately of 10 μg RNA with 2 pmol of gene-specific primer and 1 μL 10 mM dNTP Mix in a total volume of 13 μL was incubated at 65° C. for 5 min and then placed in ice for 5 min. Next, 4 μL 5×First-Strand Buffer, 1 μL 0.1 M DTT, 1 μL RNaseOUT and 1 μL SuperScript™ III RT were added and the mixture was incubated at 50° C. for 1 h, followed by 85° C. for 10 min. After digestion with RNase A and RNase H, the remaining cDNA was purified using RNAClean XP beads (Beckman Coulter; 1.8 volumes of beads and 3 volumes of isopropanol).
The purified cDNA was ligated with a 3′ adapter (5′ Phosphate NNN-[…]-3′ Biotin) (SEQ ID NO: 13) by T4 RNA ligase 1 (New England BioLabs; NEB) following the manufacturer's recommended protocol (2 μL 10×T4 RNA ligase buffer, 1 μL of 1 mM ATP, 10 μL 50% PEG 8000, 5 μL cDNA, 1 μL of 20 μM ssDNA adaptor, and 1 μL of T4 RNA ligase). Then, the cDNA ligated to the adaptor was purified with RNAClean XP beads as described above. PCR amplification was performed with the ligated cDNA by using Phusion polymerase (NEB) with cycling conditions of 98° C. for 20 s, 64° C. for 20 s and 72° C. for 90 s and the following forward (5′-[…]-3′) (SEQ ID NO: 14) and reverse (5′-[…]-3′) (SEQ ID NO: 15) primers. The PCR products were separated on a denaturing 15% polyacrylamide gel and the target band was excised from the gel and ethanol precipitated. The purified DNA was ligated into a vector using NEB's PCR Cloning Kit per the manufacturer's protocol. Antibiotic-resistant colonies were selected and subjected to Sanger sequencing by Genewiz. The cleavage sites and percentage were determined by comparing the cleaver treated samples and non-treated samples.

Kd [3]: 20 µM
SMILES: CN1CCN(c2ccc(-c3ccc4[nH]c(-c5ccc(OCCCC(=O)NCCCN=[N+]=[N-])cc5)nc4c3)cc2)CC1 [Compound 1]
competition of Chem-CLIP enrichment (C-Chem-CLIP) ([1]; MDA-MB-231, versus probe 8): enrichment is depleted | protection from Dicer processing [2]: Protection with compound is observed at U26 and U27 | inhibition of / protection from Dicer processing [4]: Protection with compound is observed at U23 (boxes marked with arrows) and U26 and U27 | inhibition of / protection from Dicer processing ([4]; listed as Formula 1): inhibited in vitro Dicer processing | saturation of the binding isotherm [5]: No saturation of the binding isotherm was observed | increase of pre-miR-21 levels ([6]; 10 μM, MDA-MB-231): 1.3 fold | inhibition of miR-21 production ([6]; 10 μM, MDA-MB-231): 50% | effect on mature miR-21 levels [6]: inhibits mature miR-21-5p biogenesis | effect on pre-miR-21 levels [6]: boosts levels of pre-miR-21

SMILES: CCOC(=O)C1=C(Nc2ccccc2)SC(=Cc2ccc(OCCOCCOCCOCCNC(=O)CCCOc3cccc(-c4nc5ccc(-c6nc7cc(N8CCN(C)CC8)ccc7[nH]6)cc5[nH]4)c3)c(O)c2)C1=O [Compound 25]
effect on pre-miR-210 [7]: Cleavage of pre-miR-210

SMILES: CN1CCN(c2ccc3nc(-c4ccc5nc(-c6cccc(OCCCC(=O)NCCCN=[N+]=[N-])c6)[nH]c5c4)[nH]c3c2)CC1 [Compound 26]
effect on mature miR-210 levels [7]: inhibits mature miR-210 levels | effect on pre-miR-210 [7]: boosts levels of pre-miR-21

SMILES: C#CCN(CC(=O)N(CCNC(=O)CCCCC1SCC2NC(=O)NC21)CC(N)=O)C(=O)CN(CCNC(=O)CCCc1ccc(N(CCCl)CCCl)cc1)C(C)=O (stereo not drawn) [Compound 9, reference compound]
enrichment of the pre-miR-21 transcript by Chem-CLIP ([1]; 10 μM): no enrichment

SMILES: C#CCN(CC(=O)N(CCC)CC(=O)N(CCC)CC(=O)N(CCC)CC(=O)N(CC#C)CC(=O)NCCOCCOCCOCCOc1ccc(C=C2SC(Nc3ccccc3)=C(C(=O)OCC)C2=O)cc1O)C(C)=O [Compound 6]
effect on mature miR-21 levels [6]: inactive

SMILES: CC(=O)N(CCNC(=O)CCCc1ccc(N(CCCl)CCCl)cc1)CC(=O)N(CC(=O)N(CCNC(=O)CCCCC1SCC2NC(=O)NC21)CC(N)=O)Cc1cn(CCCNC(=O)CCCOc2ccc(-c3nc4cc(-c5ccc(N6CCN(C)CC6)cc5)ccc4[nH]3)cc2)nn1 (stereo not drawn) [Compound 8]
enrichment of pre-miR-21 by Chem-CLIP pulldown ([1]; 10 μM, MDA-MB-231): ~2.5 fold | enrichment of the pre-miR-21 transcript by Chem-CLIP ([1]; 10 μM): enrichment for the pre-miR-21 transcript | pulldown of 32P 5′-end labeled pre-miR-21 WT RNA [8]: greater enrichment of the RNA compared to 9

SMILES: CCCN(CC(=O)N(CCC)CC(=O)N(CCC)CC(=O)N(CC(=O)NCCOCCOCCOCCOc1cc(C=C2SC(Nc3ccccc3)=C(C(=O)OCC)C2=O)ccc1O)Cc1cn(CCCNC(=O)CCCOc2ccc(-c3nc4cc(-c5ccc(N6CCN(C)CC6)cc5)ccc4[nH]3)cc2)nn1)C(=O)CN(Cc1cn(CCCNC(=O)CCCOc2ccc(-c3nc4cc(-c5ccc(N6CCN(C)CC6)cc5)ccc4[nH]3)cc2)nn1)C(C)=O [Compound 7]
effect on mature miR-21 levels [6]: decreased miR-21 levels | effect on pre-miR-21 levels [6]: increased pre-miR-21 levels | effect on mature miR-21 levels ([6]; listed as Formula 7): did not have enhanced activity over Formula 2

SMILES: CCCN(CC(=O)N(CCC)CC(=O)N(CCC)CC(=O)N(CC(=O)NCCCCNCCCNC(=O)c1csc(-c2csc(CCNC(=O)C(NC(=O)C(C)[C@H](O)C(C)NC(=O)C(NC(=O)c3nc(C(CC(N)=O)NC[C@H](N)C(N)=O)nc(N)c3C)[C@@H](OC3OC(CO)C(O)C(O)C3OC3OC(CO)C(O)C(OC(N)=O)C3O)c3c[nH]cn3)C(C)O)n2)n1)Cc1cn(CCCNC(=O)CCCOc2ccc(-c3nc4cc(-c5ccc(N6CCN(C)CC6)cc5)ccc4[nH]3)cc2)nn1)C(=O)CN(Cc1cn(CCCNC(=O)CCCOc2ccc(-c3nc4cc(-c5ccc(N6CCN(C)CC6)cc5)ccc4[nH]3)cc2)nn1)C(C)=O (stereo partly drawn) [Compound 10]
RT stops induced in pri-miR-21 [9]: induced an RT stop at the indicated sites | reads that stop at the second A (3′) ([10]; 3/21 reads): 14% | reads that stop at the third A (3′) ([10]; 6/21 reads): 29% | reads that stop at the first C (5′) ([10]; 12/21 reads): 57% | effect on mature miR-21 levels [6]: decreases mature miR-21 levels | effect on pre-miR-21 levels [6]: cleaved and decreased pre-miR-21 levels
